Reference: article PMC10142505, “Synthesis, Evaluation of Enzyme Inhibition and Redox Properties of Potential Dual COX-2 and 5-LOX Inhibitors” (Pharmaceuticals, 2023)
Marks after values point to notes of the source that are not given here.

Test system: human serum pool
Assay: Redox activity (oxy score from TOS, PAB, TAS, SHG) in vitro in human serum pool
Details: 37 °C, median (interquartile range); for Oxy score (OS), 2 h incubation, TBH added / Oxy score (OS), 24 h incubation, TBH added: with TBH added; for Oxy score (OS), 2 h incubation / Oxy score (OS), 24 h incubation: without TBH; for Oxy score (OS), 2 h incubation: average of five concentrations
Description: The remains of the serum samples were taken from healthy subjects after biochemical analysis; these subjects participated in regular medical examinations at the Military Medical Academy in Belgrade and consented to the formation of a serum pool. Neither the patients’ data nor their identities were used. Serum pool samples were prepared and aliquoted (450 µL portions) according to the routine procedure for in-house controle samples and preserved at the -80 °C until analysis. Five serial dilutions of the tested compounds (concentrations: 1000 µM, 500 µM, 250 µM, 125 µM and 62.5 µM) were added alone (50 µL) or in combination (25 µL) with oxidant TBH (25 µM) into 450 µL of serum. The compounds were dissolved in dimethyl sulfoxide (DMSO) for stock solution (1000 µM), while a PBS buffer (phosphate buffered saline) pH = 7.4 was used for serial dilutions (500 µM, 250 µM, 125 µM and 62.5 µM). Deionized water was used as a blank. DMSO and buffer pH = 7.4 were used as a control, while trolox solution (2 mmol/L) was used as a standard. All samples were incubated in duplicate for 2 h and 24 h at 37 °C.
Oxidative stress parameters (total antioxidative status (TAS), total oxidative status (TOS), total concentration of sulfhydryl group (SHG) and prooxidative–antioxidative balance (PAB)) were determined in order to calculate prooxidative score, antioxidative score and oxy score (OS). These parameters were determined in serum.
Total antioxidative status (TAS) was measured using Erel’s method, which was further optimized by Kotur-Stevuljevic et al. in 2015 [34]. ABTS (2,2-azino-bis(3-ethyl-benzthiazoline-6-sulfonic acid) is oxidized to a green-colored ABTS^+ cation by hydrogen peroxide in the acetate buffer (pH = 3.6). This stable cation is chromogen, and the presence of antioxidants in the samples causes its discoloration proportional to their concentrations. The absorbance was measured using a SPECTROstar Nano Microplate Reader (BMG Labtech, Ortenberg, Germany). The reaction was calibrated with Trolox and the TAS values are expressed as mmol trolox equivalent/L.
Total oxidative status (TOS) was measured using Erel’s method. Here, a ferrous ion-o-dianisidine complex is oxidized to ferric ion by the oxidants present in the sample. The ferric ion forms a colored complex with xylenol orange in an acidic environment and in the presence of glycerol. The intensity of the color of the formed complex is proportional to the total contents of oxidants in the sample. The absorbance was measured at 560 nm using a SPECTROstar Nano Microplate Reader (BMG Labtech, Ortenberg, Germany). The reaction was calibrated with hydrogen peroxide and the TOS values are expressed as µmol H2O2 equivalent/L.
Prooxidant–antioxidant balance (PAB) was measured according to procedures in the literature. Here, hydrogen peroxide is determined in the presence of antioxidants in the sample. Both of them (hydrogen peroxide and antioxidants (including uric acid)) react with chromogen TMB (3,3′,5,5′-tetramethylbenzidine) simultaneously. The hydrogen peroxide and chromogen reaction is enzymatically catalyzed with peroxidase, while the antioxidants–chromogen reaction is non-enzymatic. The intense blue color, produced as a result of the reaction between hydrogen peroxide and TMB, is decolorized by the reaction of the antioxidant with the TMB. The resulting color (result of two competitive reactions) is proportional to the ratio of antioxidants to prooxidants. The absorbance was measured at 450 nm. Different ratios of hydrogen peroxide and uric acid solutions were used to make a standard curve. The PAB results are expressed in hydrogen peroxide concentrations.
Total Sulfydryl Groups Content (SHG) was measured using a modified version of Ellman’s method. This method is based on the reaction between DTNB ([…]) and aliphatic thiol compounds in an alkaline environment (pH = 9.0). […]

SMILES	Oxy score (OS), 2 h incubation, TBH added	Oxy score (OS), 2 h incubation	Oxy score (OS), 24 h incubation, TBH added	Oxy score (OS), 24 h incubation
Cc1cc(C(C)(C)C)c(O)c(C(C)(C)C)c1 [BHT, Butylated hydroxytoluene, reference compound]	7.98 (6.77–8.81)	3.08 (2.73–3.26)	4.51 (4.38–7.22)	2.62 (2.14–3.22)
Cc1ccc(-c2cc(C(F)(F)F)nn2-c2ccc(S(N)(=O)=O)cc2)cc1 [Celecoxib, reference compound]	7.94 (6.97–8.45)	5.66 (2.92–12.90)	4.95 (4.57–10.25)	2.77 (2.46–3.27)
CC(C)(C)OO [TBH, tert-butyl hydroperoxide, reference compound]	–	6.40 (4.66–11.59)	–	6.43 (4.73–12.00)
Cc1c(C)c2c(c(C)c1O)CCC(C)(C(=O)O)O2 (centres unmarked) [Trolox, reference compound]	–	0.54 (−0.66–2.43)	–	0.07 (−0.59–0.59) *
NC(N)=O [Urea, urea, reference compound]	8.11 (7.61–8.79)	3.48 (3.44–4.08)	5.19 (4.96–14.00)	4.60 (3.62–6.02)
CC(c1cc2ccccc2s1)N(O)C(N)=O (centres unmarked) [Zileuton, reference compound]	6.87 (6.52–7.18)	2.60 (−7.86–7.54)	8.80 (5.71–13.66)	3.61 (2.47–4.93)
